Where “and” joins values, the source holds several entries; their conditions need not be identical. Equal values may be shown once.
Experiments:
[1] = target: mouse heart mitochondrial membranes (complex I) (Mus musculus, UniProt P03888+P03899+Q91WD5+Q9DC70); test: NADH:O2 oxidoreduction by mouse heart mitochondrial membranes; assay type: biochemical; details: for HillSlope (best fit value) / IC50 / LogIC50 (best fit value): Prism variable slope fit; for IC50: Bottom 0, Top 100, read-out: IC50 (best fit value); for LogIC50 (best fit value): log of IC50 in mM
Protocol: (§1) Complex I and mitochondrial membranes were prepared from Bos taurus (bovine) heart. Intact mitochondria were isolated from rat liver and mouse heart and liver. Membranes were prepared from mouse heart mitochondria by 5 s bursts of sonication at 4 °C and collected by centrifugation (75,000 × g, 1 h).
Assays were performed at 32 °C in a SpectraMax 96-well plate reader. NADH:decylubiquinone oxidoreduction by complex I at 0.5 μg mL^−1 was measured in 20 mM Tris-HCl (pH 7.2), 0.15 % soy bean asolectin (Avanti Polar Lipids), and 0.15 % 3-((3-cholamidopropyl)dimethylammonium)-1-propanesulfonate (CHAPS, Merck Chemicals Ltd), with 200 μM decylubiquinone and 200 μM NADH, and monitored using ε340–380(NADH) = 4.81 mM^−1 cm^−1 [23]. Catalysis was initiated by addition of NADH and maximal rates determined by linear regression. NADH:O2 oxidoreduction by membranes was measured similarly but using 5 μg mL^−1 membranes in 10 mM Tris-HCl (pH 7.4) and 250 mM sucrose using 200 μM NADH and supplemented with 0.15 mM horse heart cytochrome c (Sigma-Aldrich Ltd.). Succinate:O2 oxidoreduction was measured using 40 μg mL^−1 membranes in 5 mM succinate in 10 mM Tris-HCl (pH 7.4) as described previously. Control experiments included NaCl (to match the ionic strength) or DMSO, as appropriate.
Experimental values are reported as mean averages ± standard deviation (SD) of technical replicates for large sample sizes and mean averages ± standard error of the mean (SEM) of technical replicates for small sample sizes. Data were analyzed by the unpaired two-tailed Student’s t test. IC50 values were determined using the standard dose-effect relationship (activity (%) = 100 × IC50 / (IC50 + [inhibitor]^m) with the Hill Slope (m) set to unity for purified complex I) and are reported with 95 % confidence intervals.

[2] = test system: permeabilized 143B cells; test: ADP-stimulated rotenone-sensitive OCR in permeabilized 143B cells; assay type: cell-based, human; set-up: rotenone sensitive OCR after ADP stimulation, individual replicates / rotenone sensitive OCR after ADP stimulation, average: unit not given here; details: 143B permeabilised cells; for rotenone sensitive OCR after ADP stimulation, % of control, individual replicates / rotenone sensitive OCR after ADP stimulation, individual replicates: replicate 1-11
Protocol: For permeabilized cell experiments, cells were seeded into XF96 plates at 0.9–1.1 × 10^4 per well and incubated for 48 h at 37 °C in 5 % CO2. Then, the growth medium was exchanged for assay buffer containing 3 nM plasma membrane permeabilizer ‘PMP’ (Seahorse Biosciences Inc.), 10 mM glutamate, 10 mM malate, 220 mM mannitol, 70 mM sucrose, 10 mM KH2PO4, 5 mM MgCl2, 1 mM EGTA, 0.2 % fatty acid-free bovine serum albumin (BSA), and 2 mM HEPES (pH 7.4 at 37 °C). […] The biguanides were allowed to accumulate for 30 min, then respiration was […] by the addition of 4 mM ADP. Rotenone was added (2 μM) at the end of the experiment.
Rotenone-sensitive OCRs were calculated by subtracting the rotenone-insensitive rates (determined at the end of the experiment). OCRs were normalized by dividing by the OCR recorded immediately prior to the addition of biguanide. For rate of uptake calculations, the OCRs at time points after biguanide addition were divided by the OCRs at the same time points in control experiments. Data from wells with failed port injections were excluded from the analyses. The respiratory control ratio (RCR) values (state III versus state IV respiration) were ~11 and ~6 for permeabilized MDBK and 143B cells, respectively.

[3] = test system: mouse heart mitochondria; test: ADP-stimulated rotenone-sensitive OCR in isolated mouse heart mitochondria; assay type: biochemical; set-up: rotenone sensitive OCR after ADP stimulation, individual replicates / rotenone sensitive OCR after ADP stimulation, average / rotenone sensitive OCR after 15 mins, average: unit not given here; details: for rotenone sensitive OCR after ADP stimulation, % of control, average / rotenone sensitive OCR after ADP stimulation, average: average of replicates; for rotenone sensitive OCR after ADP stimulation, % of control, individual replicates: replicate 1-11; for rotenone sensitive OCR after ADP stimulation, individual replicates: replicate 1-12
Protocol: as §1
Isolated mitochondria were monitored using a Seahorse XF96 extracellular flux analyzer at 32 °C. Mouse heart mitochondria, and mouse and rat liver mitochondria were plated into XF96 plates at 4 and 16–20 μg per well, respectively, in 220 mM mannitol, 70 mM sucrose, 10 mM KH2PO4, 5 mM MgCl2, 1 mM EGTA, 0.2 % fatty acid-free BSA, and 2 mM HEPES (pH 7.4 at 37 °C) with 10 mM glutamate and 10 mM malate and adhered by centrifugation (2000 × g, 20 min, 4 °C). The medium was supplemented with a further 5 mM glutamate and 5 mM malate and the mitochondria incubated for 15 min. Then two baseline readings were taken before the biguanides were added at IC50/5. […] Rotenone (2 μM) was added at the end of the experiment. Data from wells with failed port injections were excluded from the analyses. The RCR values (state III versus state IV respiration) were 3.4, 4.8, and 4.6 for mouse heart, rat liver, and mouse liver, respectively.

[4] = test system: acetyl-coA carboxylase (phospho-Ser79); test: AMPK activation, western blot of phospho-acetyl-coA carboxylase in MDBK cells; assay type: cell-based, Bos taurus; details: for ACC, average normalised to control: Averages of experiments 1-3, 18 hours; for p-ACC: band intensity
Protocol: MDBK cells were seeded at 1 × 10^6 cells per 6 cm dish in DMEM containing 10 % FBS. […] After 18 h cells were harvested by a rapid lysis procedure: cells were rinsed with PBS, then lysed using ice-cold buffer containing 50 mM HEPES, 1 mM EDTA, 10 % glycerol, 50 mM NaF, 5 mM sodium pyrophosphate, 1 % Triton-X100, 1 mM dithiothreitol (DTT), and a protease inhibitor cocktail (Roche). The cell lysate was centrifuged at 14,000 × g for 20 min at 4 °C and the protein concentration of the supernatant determined by bicinchoninic acid assay. The lysate was analyzed using Novex 3–12 % bis-Tris gels run in 3-(N-morpholino)propanesulfonic acid (MOPS) buffer (20 μg of protein per lane) followed by transfer to low fluorescence polyvinylidene fluoride membranes by wet transfer. Primary rabbit antibodies for AMPK-β (57C12), AMPK-α (phospho-Thr172) (40H9), and acetyl-coA carboxylase (phospho-Ser79) (Cell Signaling Technology) were incubated overnight with the membrane (1:1000 dilution) in Odyssey blocking buffer at 4 °C. A fluorescent secondary antibody was used (IRDYE800CW from LI-COR Biosciences, 1:20,000 dilution) with a LI-COR Odyssey imaging system.

Sequence of mouse heart mitochondrial membranes (complex I) (P03899 whole entry): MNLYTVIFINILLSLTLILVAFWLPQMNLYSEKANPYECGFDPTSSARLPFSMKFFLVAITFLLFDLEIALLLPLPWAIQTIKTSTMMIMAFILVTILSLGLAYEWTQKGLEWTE
Sequence of mouse heart mitochondrial membranes (complex I) (P03888 whole entry): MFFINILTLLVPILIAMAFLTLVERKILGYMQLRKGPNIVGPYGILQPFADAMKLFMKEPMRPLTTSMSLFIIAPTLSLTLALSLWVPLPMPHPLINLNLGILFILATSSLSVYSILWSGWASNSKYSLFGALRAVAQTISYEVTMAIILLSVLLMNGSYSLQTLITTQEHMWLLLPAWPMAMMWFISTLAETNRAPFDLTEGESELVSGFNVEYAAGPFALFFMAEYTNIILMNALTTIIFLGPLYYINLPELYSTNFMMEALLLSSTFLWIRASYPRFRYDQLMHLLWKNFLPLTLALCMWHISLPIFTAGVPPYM
Sequence of mouse heart mitochondrial membranes (complex I) (Q9DC70 36-224): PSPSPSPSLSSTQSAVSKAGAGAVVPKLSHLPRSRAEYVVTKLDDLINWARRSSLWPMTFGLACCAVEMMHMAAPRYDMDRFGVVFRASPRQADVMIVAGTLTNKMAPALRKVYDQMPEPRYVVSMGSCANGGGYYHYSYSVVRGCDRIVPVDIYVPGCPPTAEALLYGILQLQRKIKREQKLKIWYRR
Sequence of mouse heart mitochondrial membranes (complex I) (Q91WD5 34-463): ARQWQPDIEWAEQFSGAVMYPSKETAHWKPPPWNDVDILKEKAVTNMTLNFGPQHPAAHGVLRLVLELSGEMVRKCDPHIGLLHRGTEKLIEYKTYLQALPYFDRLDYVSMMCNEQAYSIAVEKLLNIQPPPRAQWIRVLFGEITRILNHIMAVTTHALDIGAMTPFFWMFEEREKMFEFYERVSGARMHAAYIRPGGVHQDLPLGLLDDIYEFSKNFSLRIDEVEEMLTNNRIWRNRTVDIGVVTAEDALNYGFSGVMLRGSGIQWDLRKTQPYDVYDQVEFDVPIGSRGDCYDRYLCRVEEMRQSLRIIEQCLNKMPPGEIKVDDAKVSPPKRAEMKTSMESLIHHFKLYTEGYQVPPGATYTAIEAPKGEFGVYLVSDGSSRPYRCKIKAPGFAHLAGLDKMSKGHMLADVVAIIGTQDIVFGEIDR

Structure (SMILES)	HillSlope (best fit value) [1]	IC50 [1] [mM]	LogIC50 (best fit value) [1]	rotenone sensitive OCR after ADP stimulation, % of control, individual replicates [2]	rotenone sensitive OCR after ADP stimulation, individual replicates [2]	rotenone sensitive OCR after ADP stimulation, % of control, average [3]	rotenone sensitive OCR after ADP stimulation, average [3]	rotenone sensitive OCR after ADP stimulation, % of control, individual replicates [3]	rotenone sensitive OCR after ADP stimulation, individual replicates [3]	ACC, average normalised to control [4]	p-ACC / AMPK beta ([4]; Experiment 1, 18 hours)	p-ACC / AMPK beta normalised to control ([4]; Experiment 1, 18 hours)	p-ACC ([4]; Experiment 1, 18 hours)	p-ACC / AMPK beta ([4]; Experiment 2, 18 hours)	p-ACC / AMPK beta normalised to control ([4]; Experiment 2, 18 hours)	p-ACC ([4]; Experiment 2, 18 hours)	p-ACC / AMPK beta ([4]; Experiment 3, 18 hours)	p-ACC / AMPK beta normalised to control ([4]; Experiment 3, 18 hours)	p-ACC ([4]; Experiment 3, 18 hours)	other results
NC(N)=NC(N)=NCc1ccccc1 [compound 3, 2-benzyl-1-(diaminomethylidene)guanidine]	-1.132	3.18	0.5023	6.07 % of control and 2.51 % of control and 3.63 % of control and 7.99 % of control and 8.80 % of control and 18.64 % of control and 13.94 % of control and 7.14 % of control and 16.57 % of control and 2.18 % of control and 7.53 % of control	14.50 and 5.99 and 8.67 and 19.08 and 21.01 and 44.51 and 33.29 and 17.05 and 39.56 and 5.21 and 17.98	28.02 % of control	67.86	41.93 % of control and 30.59 % of control and 30.48 % of control and 24.44 % of control and 22.36 % of control and 21.02 % of control and 20.43 % of control and 32.91 % of control	101.56 and 74.09 and 73.82 and 59.18 and 54.16 and 50.90 and 49.48 and 79.71	12.79	2.45	12.63	1150	2.31	14.32	699	3.41	11.43	770	remaining activity at 130 µM ([1]; inhibitor 0.13 mM, read-out: average % (rate, % of no-inhibitor control)): 99.2%; remaining activity at 250 µM ([1]; inhibitor 0.25 mM, read-out: average % (rate, % of no-inhibitor control)): 93.8%; remaining activity at 500 µM ([1]; inhibitor 0.50 mM, read-out: average % (rate, % of no-inhibitor control)): 86.3%; remaining activity at 1000 µM ([1]; inhibitor 1.00 mM, read-out: average % (rate, % of no-inhibitor control)): 85%; remaining activity at 5000 µM ([1]; inhibitor 5.00 mM, read-out: average % (rate, % of no-inhibitor control)): 35.4%; remaining activity at 10000 µM ([1]; inhibitor 10.00 mM, read-out: average % (rate, % of no-inhibitor control)): 25.3%
CC(C)N=C(N)N=C(N)N [compound 4, 1-(diaminomethylidene)-2-(propan-2-yl)guanidine]	-1.082	30.1	1.478	-1.48 % of control and 3.88 % of control and 15.33 % of control and 9.59 % of control and 8.04 % of control and 7.71 % of control and 5.26 % of control and 0.97 % of control and -3.74 % of control and 3.83 % of control	-3.53 and 9.26 and 36.59 and 22.89 and 19.19 and 18.41 and 12.55 and 2.31 and -8.93 and 9.14	23.15 % of control	56.07	28.98 % of control and 23.60 % of control and 23.95 % of control and 23.54 % of control and 25.71 % of control and 23.25 % of control and 16.50 % of control and 19.68 % of control	70.20 and 57.15 and 58.01 and 57.01 and 62.27 and 56.30 and 39.95 and 47.67	13.65	2.64	13.60	1170	2.65	16.42	693	3.25	10.92	641	remaining activity at 620 µM ([1]; inhibitor 0.62 mM, read-out: average % (rate, % of no-inhibitor control)): 103%; remaining activity at 1320 µM ([1]; inhibitor 1.32 mM, read-out: average % (rate, % of no-inhibitor control)): 99.1%; remaining activity at 3120 µM ([1]; inhibitor 3.12 mM, read-out: average % (rate, % of no-inhibitor control)): 93.2%; remaining activity at 6250 µM ([1]; inhibitor 6.25 mM, read-out: average % (rate, % of no-inhibitor control)): 80.8%; remaining activity at 15600 µM ([1]; inhibitor 15.60 mM, read-out: average % (rate, % of no-inhibitor control)): 67.2%; remaining activity at 62500 µM ([1]; inhibitor 62.50 mM, read-out: average % (rate, % of no-inhibitor control)): 30.7%; rotenone sensitive OCR after ADP stimulation, % of control, average ([2]; average of replicates): 4.94 % of control; rotenone sensitive OCR after ADP stimulation, average ([2]; average of replicates): 11.79

Reference: PMC4977651, “Molecular features of biguanides required for targeting of mitochondrial respiratory complex I and activation of AMP-kinase” (BMC Biology, 2016)
